The results in this text go back to patent US20230038929A1, “Fused Tricyclic Heterocyclic Compounds and Uses Thereof” (Verge Analytics, Inc., priority 2019, published 2023).

This test concerns the target T1, Full length human recombinant PIKFYVE (Homo sapiens, UniProt Q9Y2I7, L932S/Q1183K/Q995L/S1033A/S696N/T998S).
T1 construct: Full length human recombinant PIKFYVE; purchased Carna Biosciences (Kobe, Japan); host or cells: baculovirus expression system (insect cells)
Kind of test: Inhibition of PIKfyve (microfluidic electrophoresis kinase assay). It counts as biochemical. The note with it: 2 nM enzyme, 1 μM PI3P, 3 h at room temperature, 12 concentrations; read-out: PIKfyve IC50. The procedure:
Biological Example 1: Inhibition of PIKfyve
Full length human recombinant PIKFYVE expressed in baculovirus expression system as N-terminal GST-fusion protein (265 kDa) was obtained from Carna Biosciences (Kobe, Japan). The kinase substrate was prepared by mixing and sonicating fluorescently-labeled phosphatidylinositol 3-phosphate (PI3P) with phospho-L-serine (PS) at a 1:10 ratio in 50 mM HEPES buffer pH7.5.
The kinase reactions were assembled in 384-well plates (Greiner) in a total volume of […] as follows. Kinase protein was pre-diluted in an assay buffer comprising 25 mM HEPES, pH 7.5, 1 mM DTT, 2.5 mM MgCl2, and 2.5 mM MnCl2, and 0.005% Triton X-100, and dispensed into a 384-well plate (10 μL per well). Test compounds were serially pre-diluted in DMSO and added to the protein samples by acoustic dispensing (Labcyte Echo). The concentration of DMSO was equalized to 1% in all samples. All test compounds were tested at 12 concentrations. Apilimod was used as a reference compound and was tested in identical manner in each assay plate. Control samples (0%-inhibition, in the absence of inhibitor, DMSO only) and 100%-inhibition (in the absence of enzyme) were assembled in replicates of four and were used to calculate %-inhibition in the presence of compounds. The reactions were initiated by addition of 10 μL of 2× PI3P/PS substrate supplemented with ATP. The final concentration of enzyme was 2 nM, the final concentration of ATP was […], and the final concentration of PI3P/PS substrate was 1 μM (PI3P). The kinase reactions were allowed to proceed for 3 h at room temperature. Following incubation, the reactions were quenched by addition of […] of termination buffer (100 mM HEPES, pH 7.5, 0.01% Triton X-100, 20 mM EDTA). Terminated plates were analyzed on a microfluidic electrophoresis instrument (Caliper LabChip® 3000, Caliper Life Sciences/Perkin Elmer). The change in the relative fluorescence intensity of the PI(3)P substrate and PI(3,5)P product peaks was measured. The activity in each test sample was determined as the product to sum ratio (PSR): P/(S+P), where P is the peak height of the product, and S is the peak height of the substrate. Percent inhibition (Pinh) was determined using the following equation:
Pinh=(PSR0%inh−PSRcompound)/(PSR0%inh−P100%inh)*100
in which PSRcompound is the product/sum ratio in the presence of compound, PSR0%inh is the product/sum ratio in the absence of compound, and the PSR100%inh is the product/sum ratio in the absence of the enzyme. To determine the ICso of test compounds (50%-inhibition) the %-inh cdata (Pinh versus compound concentration) were fitted by a four-parameter sigmoid dose-response model using XLfit software (IDBS).

Counter-ions that a name gives are not always drawn.

T1 sequence (Q9Y2I7 whole entry S696N/L932S/Q995L/T998S/S1033A/Q1183K): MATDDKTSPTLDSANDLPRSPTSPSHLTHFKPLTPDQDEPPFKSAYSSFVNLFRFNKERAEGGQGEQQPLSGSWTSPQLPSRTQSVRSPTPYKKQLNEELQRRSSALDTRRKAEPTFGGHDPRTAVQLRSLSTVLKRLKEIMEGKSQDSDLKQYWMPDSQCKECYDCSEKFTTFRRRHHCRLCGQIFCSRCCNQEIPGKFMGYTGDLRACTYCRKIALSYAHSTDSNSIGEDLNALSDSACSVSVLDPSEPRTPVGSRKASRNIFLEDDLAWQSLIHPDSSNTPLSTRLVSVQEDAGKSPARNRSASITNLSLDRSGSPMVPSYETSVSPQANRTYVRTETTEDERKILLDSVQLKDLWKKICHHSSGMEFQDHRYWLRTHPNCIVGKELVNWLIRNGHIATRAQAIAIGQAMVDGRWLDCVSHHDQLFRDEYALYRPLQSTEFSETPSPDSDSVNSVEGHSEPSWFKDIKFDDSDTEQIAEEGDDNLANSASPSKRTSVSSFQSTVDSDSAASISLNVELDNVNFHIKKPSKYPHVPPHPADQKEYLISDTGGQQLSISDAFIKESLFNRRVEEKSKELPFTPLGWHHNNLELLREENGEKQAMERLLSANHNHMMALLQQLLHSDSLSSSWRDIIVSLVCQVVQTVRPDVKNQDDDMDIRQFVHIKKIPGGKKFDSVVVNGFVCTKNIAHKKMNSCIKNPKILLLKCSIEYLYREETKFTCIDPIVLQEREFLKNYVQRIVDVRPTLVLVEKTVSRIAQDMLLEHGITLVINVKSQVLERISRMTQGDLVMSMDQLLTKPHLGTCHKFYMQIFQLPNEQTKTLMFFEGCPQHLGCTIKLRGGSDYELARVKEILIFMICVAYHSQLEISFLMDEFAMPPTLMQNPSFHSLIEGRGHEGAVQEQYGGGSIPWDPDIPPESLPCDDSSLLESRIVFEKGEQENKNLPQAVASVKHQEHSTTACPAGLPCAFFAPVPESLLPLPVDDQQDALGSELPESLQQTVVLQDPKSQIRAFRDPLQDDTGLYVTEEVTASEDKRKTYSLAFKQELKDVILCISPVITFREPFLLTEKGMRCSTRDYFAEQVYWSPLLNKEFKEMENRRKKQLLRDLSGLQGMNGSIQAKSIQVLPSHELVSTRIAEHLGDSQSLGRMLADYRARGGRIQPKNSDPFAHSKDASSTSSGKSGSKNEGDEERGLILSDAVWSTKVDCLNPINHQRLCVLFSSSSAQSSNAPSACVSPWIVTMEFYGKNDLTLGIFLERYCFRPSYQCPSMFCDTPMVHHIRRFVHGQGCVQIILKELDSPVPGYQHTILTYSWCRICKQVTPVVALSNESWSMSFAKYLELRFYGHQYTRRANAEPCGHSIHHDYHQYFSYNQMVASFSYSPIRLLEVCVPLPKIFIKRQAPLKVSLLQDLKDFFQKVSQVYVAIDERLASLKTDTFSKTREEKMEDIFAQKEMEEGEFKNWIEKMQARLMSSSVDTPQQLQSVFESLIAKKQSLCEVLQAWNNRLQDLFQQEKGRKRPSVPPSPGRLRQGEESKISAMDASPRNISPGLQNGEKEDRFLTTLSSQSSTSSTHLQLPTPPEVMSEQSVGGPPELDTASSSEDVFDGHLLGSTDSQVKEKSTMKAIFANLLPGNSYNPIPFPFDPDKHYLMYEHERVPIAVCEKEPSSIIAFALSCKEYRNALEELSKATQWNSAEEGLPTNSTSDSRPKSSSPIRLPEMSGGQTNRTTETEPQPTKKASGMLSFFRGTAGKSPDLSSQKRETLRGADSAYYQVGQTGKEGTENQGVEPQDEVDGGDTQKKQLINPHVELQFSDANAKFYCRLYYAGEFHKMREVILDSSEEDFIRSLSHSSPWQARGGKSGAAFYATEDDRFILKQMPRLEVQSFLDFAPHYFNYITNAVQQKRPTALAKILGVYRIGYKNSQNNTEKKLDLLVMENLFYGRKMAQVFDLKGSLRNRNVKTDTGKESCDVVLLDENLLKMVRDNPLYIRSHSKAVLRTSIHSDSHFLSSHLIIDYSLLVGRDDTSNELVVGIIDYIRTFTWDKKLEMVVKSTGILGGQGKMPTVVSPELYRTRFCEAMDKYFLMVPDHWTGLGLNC

As to `Fc1ccc(-c2cc(Nc3nc(N4CCOCC4)c4oc5ncccc5c4n3)[nH]n2)cc1` [Example 1, N-(3-(4-Fluorophenyl)-1H-pyrazol-5-yl)-4-morpholinopyrido[3′,2′:4,5]furo[3,2-d]pyrimidin-2-amine hydrochloride], the half-inhibitory concentration (IC50) (commonly the concentration needed to halve the response being measured) came to 473 nM.

As for `c1ccc(CNc2nc(N3CCOCC3)c3oc4ncccc4c3n2)cc1` [Example 2, N-Benzyl-4-morpholinopyrido[3′,2′:4,5]furo[3,2-d]pyrimidin-2-amine], the half-maximal inhibitory concentration (IC50) is more than 10000 nM.

As for `O=C(Nc1nc(N2CCOCC2)c2oc3ncccc3c2n1)c1ccccc1` [Example 3], the IC50 is more than 10000 nM.

As to `CN(C)CCOc1ccc2c(n1)oc1c(N3CCOCC3)nc(Nc3cc(-c4ccccc4)n[nH]3)nc12` [Example 4, 7-(2-(Dimethylamino)ethoxy)-4-morpholino-N-(3-phenyl-1H-pyrazol-5-yl)pyrido[3′,2′:4,5]furo[3,2-d]pyrimidin-2-amine hydrochloride], the IC50 was 68 nM.

`Oc1ccc2c(n1)oc1c(N3CCOCC3)nc(Nc3cc(-c4ccccc4)n[nH]3)nc12` [Example 5, 4-Morpholino-2-((3-phenyl-1H-pyrazol-5-yl)amino)pyrido[3′,2′:4,5]furo[3,2-d]pyrimidin-7-ol hydrochloride]: the concentration for half-maximal inhibition (IC50) was 17 nM.

As for `c1ccc(-c2cc(Nc3nc(N4CCOCC4)c4oc5ncccc5c4n3)[nH]n2)nc1` [Example 6, 4-Morpholino-N-(3-(pyridin-2-yl)-1H-pyrazol-5-yl)pyrido[3′,2′:4,5]furo[3,2-d]pyrimidin-2-amine hydrochloride], the IC50 is 251 nM.

On to `Cc1ccnc(-c2cc(Nc3nc(N4CCOCC4)c4oc5ncccc5c4n3)[nH]n2)c1` [Example 7, N-(3-(4-Methylpyridin-2-yl)-1H-pyrazol-5-yl)-4-morpholinopyrido[3′,2′:4,5]furo[3,2-d]pyrimidin-2-amine hydrochloride], for which the 50% inhibitory concentration (IC50) worked out at 573 nM.

For the compound `CN(C)CCc1cnc2oc3c(N4CCOCC4)nc(Nc4cc(-c5ccccc5)n[nH]4)nc3c2c1` [Example 13, 8-(2-(Dimethylamino)ethyl)-4-morpholino-N-(3-phenyl-1H-pyrazol-5-yl)pyrido[3′,2′:4,5]furo[3,2-d]pyrimidin-2-amine], the IC50 is 143 nM.

For the compound `Fc1ccccc1-c1cc(Nc2nc(N3CCOCC3)c3oc4ncccc4c3n2)[nH]n1` [Example 15, N-(3-(2-fluorophenyl)-1H-pyrazol-5-yl)-4-morpholinopyrido[3′,2′:4,5]furo[3,2-d]pyrimidin-2-amine hydrochloride], the concentration for half-maximal inhibition (IC50) is 108 nM.

In the case of `Fc1cccc(-c2cc(Nc3nc(N4CCOCC4)c4oc5ncccc5c4n3)[nH]n2)c1` [Example 16, N-(3-(3-fluorophenyl)-1H-pyrazol-5-yl)-4-morpholinopyrido[3′,2′:4,5]furo[3,2-d]pyrimidin-2-amine hydrochloride], the IC50 was found to be 129 nM.

`Clc1cccc(-c2cc(Nc3nc(N4CCOCC4)c4oc5ncccc5c4n3)[nH]n2)c1` [Example 17, N-(3-(3-chlorophenyl)-1H-pyrazol-5-yl)-4-morpholinopyrido[3′,2′:4,5]furo[3,2-d]pyrimidin-2-amine hydrochloride]: the half-maximal inhibitory concentration (IC50) was determined as 129 nM.

Take `FC(F)(F)c1cccc(-c2cc(Nc3nc(N4CCOCC4)c4oc5ncccc5c4n3)[nH]n2)c1` [Example 18, 4-morpholino-N-(3-(3-(trifluoromethyl)phenyl)-1H-pyrazol-5-yl)pyrido[3′,2′:4,5]furo[3,2-d]pyrimidin-2-amine hydrochloride]: the concentration for half-maximal inhibition (IC50) came to 1630 nM.

`Fc1ccc(-c2cc(Nc3nc(N4CCOCC4)c4oc5ncccc5c4n3)[nH]n2)cc1F` [Example 19, N-(3-(3,4-difluorophenyl)-1H-pyrazol-5-yl)-4-morpholinopyrido[3′,2′:4,5]furo[3,2-d]pyrimidin-2-amine hydrochloride]: the IC50 came to 2180 nM.

As for `c1ccc(-c2c[nH]c(Nc3nc(N4CCOCC4)c4oc5ncccc5c4n3)n2)cc1` [Example 20, 4-morpholino-N-(4-phenyl-1H-imidazol-2-yl)pyrido[3′,2′:4,5]furo[3,2-d]pyrimidin-2-amine hydrochloride], the IC50 turned out to be 4750 nM.

Consider `CN(C)CCCOc1ccc2c(n1)oc1c(N3CCOCC3)nc(Nc3cc(-c4ccccc4)n[nH]3)nc12` [Example 23, 7-(3-(dimethylamino)propoxy)-4-morpholino-N-(3-phenyl-1H-pyrazol-5-yl)pyrido[3′,2′:4,5]furo[3,2-d]pyrimidin-2-amine hydrochloride], for which the IC50 was 20 nM.

As for `c1ccc(-c2cc(Nc3nc(N4CCOCC4)c4oc5nc(OCCN6CCOCC6)ccc5c4n3)[nH]n2)cc1` [Example 24, 4-morpholino-7-(2-morpholinoethoxy)-N-(3-phenyl-1H-pyrazol-5-yl)pyrido[3′,2′:4,5]furo[3,2-d]pyrimidin-2-amine hydrochloride], the half-maximal inhibitory concentration (IC50) was found to be 61 nM.

In the case of `c1ccc(-c2cc(Nc3nc(N4CCOCC4)c4oc5nc(OCCCN6CCOCC6)ccc5c4n3)[nH]n2)cc1` [Example 25, 4-morpholino-7-(3-morpholinopropoxy)-N-(3-phenyl-1H-pyrazol-5-yl)pyrido[3′,2′:4,5]furo[3,2-d]pyrimidin-2-amine hydrochloride], the IC50 came to 14 nM.

As for `c1ccc(-c2cc(Nc3nc(N4CCOCC4)c4oc5nc(OCCN6CCCC6)ccc5c4n3)[nH]n2)cc1` [Example 26, 4-morpholino-N-(3-phenyl-1H-pyrazol-5-yl)-7-(2-(pyrrolidin-1-yl)ethoxy)pyrido[3′,2′:4,5]furo[3,2-d]pyrimidin-2-amine hydrochloride], the 50% inhibitory concentration (IC50) stood at 82 nM.

Consider `c1ccc(-c2cc(Nc3nc(N4CCOCC4)c4oc5nc(OCCCN6CCCC6)ccc5c4n3)[nH]n2)cc1` [Example 27, 4-morpholino-N-(3-phenyl-1H-pyrazol-5-yl)-7-(3-(pyrrolidin-1-yl)propoxy)pyrido[3′,2′:4,5]furo[3,2-d]pyrimidin-2-amine hydrochloride], for which the IC50 was 16 nM.

In the case of `CN1CCN(CCOc2ccc3c(n2)oc2c(N4CCOCC4)nc(Nc4cc(-c5ccccc5)n[nH]4)nc23)CC1` [Example 28, 7-(2-(4-methylpiperazin-1-yl)ethoxy)-4-morpholino-N-(3-phenyl-1H-pyrazol-5-yl)pyrido[3′,2′:4,5]furo[3,2-d]pyrimidin-2-amine hydrochloride], the IC50 was determined as 46 nM.

Take `CN1CCN(CCCOc2ccc3c(n2)oc2c(N4CCOCC4)nc(Nc4cc(-c5ccccc5)n[nH]4)nc23)CC1` [Example 29, 7-(3-(4-methylpiperazin-1-yl)propoxy)-4-morpholino-N-(3-phenyl-1H-pyrazol-5-yl)pyrido[3′,2′:4,5]furo[3,2-d]pyrimidin-2-amine hydrochloride]: the 50% inhibitory concentration (IC50) came to 3 nM.

For the compound `COc1ccc2c(n1)oc1c(N3CCOCC3)nc(Nc3cc(-c4ccccc4)n[nH]3)nc12` [Example 30, 7-methoxy-4-morpholino-N-(3-phenyl-1H-pyrazol-5-yl)pyrido[3′,2′:4,5]furo[3,2-d]pyrimidin-2-amine hydrochloride], the half-inhibitory concentration (IC50) was 163 nM.

`c1cncc(-c2cc(Nc3nc(N4CCOCC4)c4oc5ncccc5c4n3)[nH]n2)c1` [Example 31, 4-morpholino-N-(3-(pyridin-3-yl)-1H-pyrazol-5-yl)pyrido[3′,2′:4,5]furo[3,2-d]pyrimidin-2-amine hydrochloride]: the half-inhibitory concentration (IC50) worked out at 1090 nM.

With `Cc1cncc(-c2cc(Nc3nc(N4CCOCC4)c4oc5ncccc5c4n3)[nH]n2)c1` [Example 32, N-(3-(5-methylpyridin-3-yl)-1H-pyrazol-5-yl)-4-morpholinopyrido[3′,2′:4,5]furo[3,2-d]pyrimidin-2-amine hydrochloride], the IC50 stood at 825 nM.

For the compound `Cc1cccc(-c2cc(Nc3nc(N4CCOCC4)c4oc5ncccc5c4n3)[nH]n2)n1` [Example 33, N-(3-(6-methylpyridin-2-yl)-1H-pyrazol-5-yl)-4-morpholinopyrido[3′,2′:4,5]furo[3,2-d]pyrimidin-2-amine hydrochloride], the IC50 amounted to 261 nM.

As to `COc1cccc(-c2cc(Nc3nc(N4CCOCC4)c4oc5ncccc5c4n3)[nH]n2)c1` [Example 34, N-(3-(3-methoxyphenyl)-1H-pyrazol-5-yl)-4-morpholinopyrido[3′,2′:4,5]furo[3,2-d]pyrimidin-2-amine hydrochloride], the IC50 was determined as 303 nM.
